Data as given in ChEMBL document CHEMBL1129878, “Synthesis of 5-epiaragusterol A” (Bioorg Med Chem Lett, 1997).
Values after ≈ are worked out from the molar mass of the structure shown.

Tests used:
KB = assay: The compound was tested for the inhibitory activity against the proliferation of KB cells; assay type: functional, cell-based; conditions: Homo sapiens
L1210 = assay: The compound was tested in vivo for the potent antitumor activity toward L1210 leukemia in mice at the dose of 1.6 (mg/kg); assay type: functional, Mus musculus

`C[C@@H]1C[C@H]1[C@H](C)C[C@@H](O)[C@@]1([C@H]2CC[C@H]3[C@@H]4CC[C@@H]5CC(=O)CC[C@]5(C)[C@H]4C[C@@H](O)[C@]23C)CO1` [5-EPIARAGUSTEROL A] was tested, and the IC50 (KB) was 0.041 µg/mL (≈ 0.0894 µM).
`C[C@@H]1C[C@H]1[C@H](C)C[C@@H](O)[C@@]1([C@H]2CC[C@H]3[C@@H]4CC[C@H]5CC(=O)CC[C@]5(C)[C@H]4C[C@@H](O)[C@]23C)CO1` [ARAGUSTEROL A] was tested, and the IC50 (KB) was 0.042 µg/mL (≈ 0.0916 µM) and the T/C (L1210) was 220%.
